# In paper PMC12222587, “A2B adenosine receptor-triggered intracellular calcium mobilization: Cell type-dependent involvement of Gi, Gq, Gs proteins and protein kinase C” (Purinergic Signalling, 2025):
# “Also recorded” adds a separate entry of the source.
# Tests used:
# A2BAR = molecular target: T1, A2BAR (Homo sapiens, UniProt P29275); test: Intracellular calcium mobilization, T24 bladder cancer cells, native A2BAR (NECA); format: cell-based
# T1 sequence (P29275 1-332): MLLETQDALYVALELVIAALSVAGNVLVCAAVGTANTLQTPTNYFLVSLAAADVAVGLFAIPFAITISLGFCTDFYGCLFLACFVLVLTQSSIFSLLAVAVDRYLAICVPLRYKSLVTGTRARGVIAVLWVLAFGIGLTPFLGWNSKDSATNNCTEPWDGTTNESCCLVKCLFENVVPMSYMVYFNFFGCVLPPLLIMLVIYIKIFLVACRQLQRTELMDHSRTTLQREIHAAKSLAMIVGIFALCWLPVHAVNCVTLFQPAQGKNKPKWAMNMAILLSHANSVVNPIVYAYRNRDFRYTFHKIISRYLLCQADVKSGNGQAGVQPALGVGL
# β2-adrenergic receptor = β2-adrenergic receptor (Homo sapiens, UniProt P07550); test: Intracellular calcium mobilization, T24 bladder cancer cells, endogenous β2-adrenergic receptor; format: cell-based
# HMC-1 cells = settings: cited from earlier work
# [1] = tested on: human erythroleukemia cells; settings: cited from earlier work
substance,measurement,setting,value
Cholera toxin [CTX],Effect on native A2BAR (NECA)-triggered calcium mobilization,A2BAR,"CTX sensitive (5), Variable, depending on cell type^b, c"
same,Effect on formoterol-induced calcium mobilization (β2-adrenergic receptor),β2-adrenergic receptor,effect larger than it was on the NECA-induced Ca^2+ response; also recorded: CTX sensitive (6)
same,Sensitivity of NECA-induced Ca2+ increase to toxin,HMC-1 cells,"^b NECA-induced Ca^2+ increase in HMC-1 cells was insensitive to CTX and PTX, Feoktistov et al., 1995 [30]"
same,Sensitivity of NECA-induced Ca2+ increase to toxin,[1],"^c NECA-induced Ca^2+ increase in human erythroleukemia cells was sensitive to CTX, Feoktistov et al., 1994 [31]"
